From US12104168B2, “Cell culture medium” (Agency For Science, Technology And Research, priority 2018, dated 2024)

Tested on: hepSC
Experiment: Dasatinib withdrawal or replacement in hSC media, maintenance of hepSC stem cell state
Conditions: for survival of hepatic stem cells: ABL kinase inhibitor together with SRC inhibition, replacing Dasatinib; for rescue of phenotype after subculturing / rescue of cell phenotype: added instead of Dasatinib; for rescue of phenotype after subculturing: 48 hr after subculturing; for rescue of cell phenotype: 6 days after withdrawal; for rescue of cell morphology changes: replacement of Dasatinib with the inhibitor, 48 hrs

SMILES	survival of hepatic stem cells	rescue of phenotype after subculturing	rescue of cell phenotype	rescue of cell morphology changes
Cc1ccc(NC(=O)c2ccc(CN3CCN(C)CC3)cc2)cc1Nc1nccc(-c2cccnc2)n1 [Imatinib]	seems to improved survival of hepatic stem cells	did not rescue the phenotype	did not rescue the cell phenotype	did not rescue cell morphology changes
Cc1cn(-c2cc(NC(=O)c3ccc(C)c(Nc4nccc(-c5cccnc5)n4)c3)cc(C(F)(F)F)c2)cn1 [Nilotinib]	seems to improved survival of hepatic stem cells	did not rescue the phenotype	did not rescue the cell phenotype	did not rescue cell morphology changes
